Read-outs that look alike come from different tables or passages of the source.
Biological target: T1, Androgen Receptor (Homo sapiens, UniProt P10275)
T1 construct: endogenous in cells; host or cells: VCaP cells
T1 sequence (P10275 1-920): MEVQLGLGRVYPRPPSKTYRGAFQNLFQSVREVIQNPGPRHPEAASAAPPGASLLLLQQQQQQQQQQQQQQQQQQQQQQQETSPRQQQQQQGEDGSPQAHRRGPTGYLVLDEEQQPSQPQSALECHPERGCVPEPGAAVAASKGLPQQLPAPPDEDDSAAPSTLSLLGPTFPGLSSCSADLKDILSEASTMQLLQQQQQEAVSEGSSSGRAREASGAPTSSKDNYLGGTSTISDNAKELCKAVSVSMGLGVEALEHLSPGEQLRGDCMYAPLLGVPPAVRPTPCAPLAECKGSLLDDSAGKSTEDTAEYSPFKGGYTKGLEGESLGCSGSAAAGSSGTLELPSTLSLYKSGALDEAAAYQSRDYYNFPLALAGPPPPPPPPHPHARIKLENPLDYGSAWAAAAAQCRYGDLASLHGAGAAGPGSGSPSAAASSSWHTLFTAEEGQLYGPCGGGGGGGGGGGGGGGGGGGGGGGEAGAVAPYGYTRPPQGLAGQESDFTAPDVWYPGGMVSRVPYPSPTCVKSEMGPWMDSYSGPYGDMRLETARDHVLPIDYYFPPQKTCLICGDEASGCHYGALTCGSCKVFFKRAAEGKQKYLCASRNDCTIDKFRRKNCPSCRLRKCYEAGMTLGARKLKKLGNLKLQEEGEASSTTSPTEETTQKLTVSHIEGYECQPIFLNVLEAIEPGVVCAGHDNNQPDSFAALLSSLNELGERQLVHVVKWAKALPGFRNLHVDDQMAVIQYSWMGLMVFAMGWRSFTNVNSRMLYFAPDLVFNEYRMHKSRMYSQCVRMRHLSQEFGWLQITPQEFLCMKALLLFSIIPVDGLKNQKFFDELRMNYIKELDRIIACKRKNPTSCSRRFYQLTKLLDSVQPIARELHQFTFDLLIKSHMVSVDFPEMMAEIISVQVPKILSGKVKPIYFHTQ
Test: Androgen Receptor ELISA assay (PathScan AR ELISA) in VCaP cells: AR degradation, Dmax and DC50
Format: cell-based
Procedure, shortened: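 VCaP cells, 30,000/well, grown ≥3 days in phenol red-free RPMI with 5% charcoal-stripped FBS; compound added in 0.1% DMSO with 0.1 nM R1881, 7 half-log doses, 24 h. Lysate AR quantified by PathScan sandwich ELISA, HRP/TMB read at 450 nm, giving DC50 and Dmax.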

[1] = VCaP cells; Table 36; read-out: VCaP DC50
[2] = VCaP, VCaP cells; Table 36; read-out: VCaP Dmax (%)
[3] = read-out: VCaP DC50; VCaP cells; Table 36

DC50 [1] [nM]	Dmax [2] [%]	SMILES	Dmax (VCaP, read-out: VCaP Dmax (%)) [%]	DC50 [3] [nM]
< 50	> 71	Cc1nc(O[C@H]2C(C)(C)[C@H](NC(=O)c3ccc(N4CCN(CCOCC(=O)N[C@H](C(=O)N5C[C@H](O)C[C@H]5C(=O)N[C@@H](C)c5ccc(-c6scnc6C)cc5)C(C)(C)C)CC4)nc3)C2(C)C)ccc1C#N [Example 682, N-((1r,3r)-3-((5-cyano-6-methylpyridin-2-yl)oxy)-2,2,4,4-tetramethylcyclobutyl)-6-(4-(2-(2-(((S)-1-((2S,4R)-4-hydroxy-2-(((S)-1-(4-(4-methylthiazol-5-yl)phenyl)ethyl)carbam-oyl)pyrrolidin-1-yl)-3,3-dimethyl-1-oxobutan-2-yl)amino)-2-oxoethoxy)ethyl)pipera-zin-1-yl)nicotinamdie]		
> 501	26 to 50	Cc1ncsc1-c1ccc([C@H](C)NC(=O)[C@@H]2C[C@@H](O)CN2C(=O)[C@H](C(C)C)N(C)C(=O)CN2CCN(CCOc3ccc(C(=O)N[C@H]4C(C)(C)[C@H](Oc5ccc(C#N)c(Cl)c5)C4(C)C)cc3)CC2)cc1 [Example 683, (2S,4R)-1-(N-(2-(4-(2-(4-(((1r,3r)-3-(3-chloro-4 cyanophenoxy)-2,2,4,4-tetramethylcyclobutyl)carbamoyl)phenoxy)eth-yl)piperazin-1-yl)acetayl)-N-methyl-L-valyl)-4-hydroxy-N-((S)-1-(4-(4-methylthiazol-5-yl)phenyl)ethyl)pyrrolidine-2-carboxamide]		
< 50	51 to 70	Cc1ncsc1-c1ccc([C@H](C)NC(=O)[C@@H]2C[C@@H](O)CN2C(=O)[C@@H](NC(=O)COCCN2CCN(c3ccc(C(=O)N[C@H]4C(C)(C)[C@H](Oc5ccc(C#N)c(C(F)(F)F)c5)C4(C)C)nn3)CC2)C(C)(C)C)cc1 [Example 684, N-((1r,3r)-3-(4-cyano-3-(trifluoromethyl)phenoxy)-2,2,4,4-tetramethylcyclobutyl)-6-(4-(2-(2-(((S)-1-((2S,4R)-4-hydroxy-2-(((S)-1-(4-(4-methylthiazol-5-yl)phenyl)ethyl)carbam-oyl)pyrrolidin-1-yl)-3,3-dimethyl-1-oxobutan-2-yl)amino)-2-oxoethoxy)ethyl)pipera-zin-1-yl)pyridazine-3-carboxamide]		
51 to 500	26 to 50	Cc1ncsc1-c1ccc([C@H](C)NC(=O)[C@@H]2C[C@@H](O)CN2C(=O)[C@@H](NC(=O)CCCCC(CCCc2ccc(C(=O)N[C@H]3C(C)(C)[C@H](Oc4ccc(C#N)c(Cl)c4)C3(C)C)nc2)N2CCN(C)CC2)C(C)(C)C)cc1 (stereo partly drawn) [Example 687, N-((1R,3R)-3-(3-chloro-4-cyanophenoxy)-2,2,4,4-tetramethylcyclobutyl)-5-(9-(((S)-1-((2S,4R)-4-hydroxy-2-(((S)-1-(4-(4-methylthiazol-5-yl)phenyl)ethyl)carbam-oyl)pyrrolidin-1-yl)-3,3-dimethyl-1-oxobutan-2-yl)amino)-4-(4-methylpiperazin-1-yl)-9-oxononyl)picolinamide]		
< 50	> 71	Cc1ncsc1-c1ccc([C@H](C)NC(=O)[C@@H]2C[C@@H](O)CN2C(=O)[C@@H](NC(=O)COCCN2CCN(c3cnc(C(=O)N[C@H]4C(C)(C)[C@H](Oc5ccc(C#N)c(C(F)(F)F)c5)C4(C)C)cn3)CC2)C(C)(C)C)cc1 [Example 689, N-((1r,3r)-3-(4-cyano-3-(trifluoromethyl)phenoxy)-2,2,4,4-tetramethylcyclobutyl)-5-(4-(2-(2-(((S)-1-((2S,4R)-4-hydroxy-2-(((S)-1-(4-(4-methylthiazol-5-yl)phenyl)ethyl)carbam-oyl)pyrrolidin-1-yl)-3,3-dimethyl-1-oxobutan-2-yl)amino)-2-oxoethoxy)ethyl)pipera-zin-1-yl)pyrazine-2-carboxamide]		
> 501	< 25	Cc1ncsc1-c1ccc([C@H](C)NC(=O)[C@@H]2C[C@@H](O)CN2C(=O)[C@@H](c2ncc(CCCCCNc3ccc(C(=O)N[C@H]4C(C)(C)[C@H](Oc5ccc(C#N)c(Cl)c5)C4(C)C)nc3)n2C)C(C)C)cc1 [Example 691, N-((1r,3r)-3-(3-chloro-4-cyanophenoxy)-2,2,4,4-tetramethylcyclobutyl)-5-((5-(2-((R)-1-((2S,4R)-4-hydroxy-2-(((S)-1-(4-(4-methylthiazol-5-yl)phenyl)ethyl)carbam-oyl)pyrrolidin-1-yl)-3-methyl-1-oxobutan-2-yl)-1-methyl-1H-imidazol-5-yl)pentyl)amino)picolin-amide]		

More lines, now with the values behind:

SMILES	DC50 [1] [nM]	Dmax [2] [%]	Dmax (VCaP, read-out: VCaP Dmax (%)) [%]	DC50 [3] [nM]
Cc1ncsc1-c1ccc([C@H](C)NC(=O)[C@@H]2C[C@@H](O)CN2C(=O)[C@@H](NC(=O)COCCCCCC2(c3ccc(C(=O)N[C@H]4C(C)(C)[C@H](Oc5ccc(C#N)c(Cl)c5)C4(C)C)cc3)COC2)C(C)(C)C)cc1 [Example 685, (2S,4R)-1-((S)-2-(2-((5-(3-(4-(((1r,3r)-3-(3-chloro-4-cyanophenoxy)-2,2,4,4-tetramethylcyclobutyl)carbamoyl)phenyl)oxetan-3-yl)pentyl)oxy)acetamido)-3,3-dimethylbutanoyl)-4-hydroxy-N-((S)-1-(4-(4-methylthiazol-5-yl)phenyl)ethyl)pyrrolidine-2-carboxamide]	< 50	> 71		
Cc1ncsc1-c1ccc([C@H](C)NC(=O)[C@@H]2C[C@@H](O)CN2C(=O)[C@@H](NC(=O)CN2CCN(CC3(CNc4ccc(C(=O)N[C@H]5C(C)(C)[C@H](Oc6ccc(C#N)c(C(F)(F)F)c6)C5(C)C)cc4)COC3)CC2)C(C)(C)C)cc1 [Example 686, (2S,4R)-1-((S)-2-(2-(4-((3-(((4-(((1r,3r)-3-(4-cyano-3-(trifluoromethyl)phenoxy)-2,2,4,4-tetramethylcyclobutyl)carbamoyl)phenyl)amino)methyl)oxetan-3-yl)methyl)piperazin-1-yl)acetamido)-3,3-dimethylbutanoyl)-4-hydroxy-N-((S)-1-(4-(4-methylthiazol-5-yl)phenyl)ethyl)pyrrolidine-2-carboxamide]			26 to 50	< 50
Cc1ncsc1-c1ccc([C@H](C)NC(=O)C2C[C@@H](O)CN2C(=O)C(NC(=O)COCC(F)(F)C(F)(F)C(F)(F)COc2ccc(C(=O)N[C@H]3C(C)(C)[C@H](Oc4ccc(C#N)c(Cl)c4)C3(C)C)cc2)C(C)(C)C)cc1 (stereo partly drawn) [Example 688, (2S,4R)-1-((S)-2-(2-((5-(4-(((1r,3r)-3-(3-chloro-4-cyanophenoxy)-2,2,4,4-tetramethylcyclobutyl)carbamoyl)phenoxy)-2,2,3,3,4,4-hexafluoropentyl)oxy)acetamido)-3,3-diemthylbutanoyl)-4-hydroxy-N-((S)-1-(4-(4-methylthiazol-5-yl)phenyl)ethyl)pyrrolidine-2-carboxamide]			> 71	< 50
Cc1ncsc1-c1ccc([C@H](C)NC(=O)[C@@H]2C[C@@H](O)CN2C(=O)[C@@H](NC(=O)CN2CCC(O[C@H]3C[C@H](Nc4ccc(C(=O)N[C@H]5C(C)(C)[C@H](Oc6ccc(C#N)c(Cl)c6)C5(C)C)cn4)C3)CC2)C(C)(C)C)cc1 [Example 690, N-((1r,3R)-3-(3-chloro-4-cyanophenoxy)-2,2,4,4-tetramethylcyclobutyl)-6-(((1S,3R)-3-((1-(2-(((S)-1-((2S,4R)-4-hydroxy-2-(((S)-1-(4-(4-methylthiazol-5-yl)phenyl)ethyl)carbam-oyl)pyrrolidin-1-yl)-3,3-dimethyl-1-oxobutan-2-yl)amino)-2-oxoethyl)piperidin-4-yl)oxy)cyclobutyl)amino) nicotinamide]	< 50		> 71	
Cc1ncsc1-c1ccc([C@H](C)NC(=O)[C@@H]2C[C@@H](O)CN2C(=O)[C@H](c2ncc(CCCCCNc3ccc(C(=O)N[C@H]4C(C)(C)[C@H](Oc5ccc(C#N)c(Cl)c5)C4(C)C)nc3)n2C)C(C)C)cc1 [Example 692, N-((1r,3r)-3-(3-chloro-4-cyanophenoxy)-2,2,4,4-tetramethylcyclobutyl)-5-((5-(2-((S)-1-((2S,4R)-4-hydroxy-2-(((S)-1-(4-(4-methylthiazol-5-yl)phenyl)ethyl)carbam-oyl)pyrrolidin-1-yl)-3-methyl-1-oxobutan-2-yl)-1-methyl-1H-imidazol-5-yl)pentyl)amino)picolin-amide]	> 501	< 25		

— patent publication US11427548B2 (Arvinas Operations, Inc., priority 2015, dated 2022)
